Laboratory results as given in US5856503A, “Aminoalkyl-substituted benzo-heterocyclic compounds” (Hoffmann-La Roche Inc., priority 1995, dated 1999).
Converted amounts (≈) assume the structure as drawn. Where two headings read alike, the source gives them in different places.

Legend:
Aspergillus fumigatus = assay: Antifungal activity in vitro, A. fumigatus (microdilution); type: cell-based; settings: 48 hours, 27° C., read-out: IC50 for A. fumigatus after 48 hours (growth inhibition)
Description: (§1) Antifungal activity in vitro The compounds were tested for antifungal activity against Candida albicans, Cryptococcus neoformans and Aspergillus fumigatus using a microdilution method on microtitre plates (96 wells per plate). Yeast supplemented with 1% glucose and 0.25% di-potassium phosphate was used for the three fungal strains. The fungal cells were inoculated at 3×10^4 CFU (Colony Forming Unit) in […] of medium per well. The medium contained increasing concentrations of test substance. After incubation at 27° C. for 24 or 48 hours the turbidity in each well was measured by a microtitre plate reader. The growth inhibition was calculated in comparison to (without test substance). The IC50 value given in the following Table is the concentration of test substance at which the growth is inhibited by 50%.

Candida albicans = assay: Antifungal activity in vitro, C. albicans (microdilution); type: cell-based; settings: 27° C.
Description: as §1

Cryptococcus neoformans = assay: Antifungal activity in vitro, C. neoformans (microdilution); type: cell-based; settings: 48 hours, 27° C., read-out: IC50 for C. neoformans after 48 hours (growth inhibition)
Description: as §1

[1] = molecular target: T1, human liver microsomal 2,3-oxidosqualene-lanosterol cyclase (OSC) (Homo sapiens, UniProt P48449); assay: Inhibition of human liver microsomal 2,3-oxidosqualene-lanosterol cyclase (OSC); type: biochemical; settings: for inhibition at 0.1 µM: 100 nM test substance, 1 hour at 37° C., against controls; for IC50: pH 7.4, 1 hour at 37° C., read-out: IC50 (OSC, conversion of MOS into lanosterol)
T1 construct: Liver microsomes from a healthy volunteer were prepared in sodium phosphate buffer (pH 7.4); from tissue; host or cells: liver microsomes from a healthy human volunteer
T1 sequence (P48449 1-732): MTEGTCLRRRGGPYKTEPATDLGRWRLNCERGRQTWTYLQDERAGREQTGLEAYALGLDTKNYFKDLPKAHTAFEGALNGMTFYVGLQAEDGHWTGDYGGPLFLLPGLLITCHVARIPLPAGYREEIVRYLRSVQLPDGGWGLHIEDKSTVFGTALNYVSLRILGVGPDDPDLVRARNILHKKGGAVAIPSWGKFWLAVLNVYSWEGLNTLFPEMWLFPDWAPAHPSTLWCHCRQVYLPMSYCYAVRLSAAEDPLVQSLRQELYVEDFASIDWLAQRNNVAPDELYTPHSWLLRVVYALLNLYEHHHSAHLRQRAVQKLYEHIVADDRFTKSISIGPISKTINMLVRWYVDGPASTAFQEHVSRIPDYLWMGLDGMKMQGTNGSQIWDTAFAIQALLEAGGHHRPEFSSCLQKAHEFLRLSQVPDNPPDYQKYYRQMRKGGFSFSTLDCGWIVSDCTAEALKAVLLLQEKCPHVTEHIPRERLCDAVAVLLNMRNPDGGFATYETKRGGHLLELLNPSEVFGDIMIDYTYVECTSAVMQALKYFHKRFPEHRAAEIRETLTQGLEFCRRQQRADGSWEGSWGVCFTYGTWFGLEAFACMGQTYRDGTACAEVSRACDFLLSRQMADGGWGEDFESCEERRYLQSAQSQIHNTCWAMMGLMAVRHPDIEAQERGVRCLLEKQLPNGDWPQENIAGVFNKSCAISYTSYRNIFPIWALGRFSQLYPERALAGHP
Description: Inhibition of human liver microsomal 2,3-oxidosqualene-lanosterol cyclase (OSC)
Liver microsomes from a healthy volunteer were prepared in sodium phosphate buffer (pH 7.4). The OSC activity was measured in the same buffer which also contained 1 mM EDTA and 1 mM dithiothreitol. The microsomes were diluted to 0.8 mg/ml protein in cold phosphate buffer. Dry [^14 C]R,S-monooxidosqualene (MOS; 12.8 μCi/mmol) was diluted to 20 nCi/μl with ethanol and mixed with phosphate buffer-1% BSA (Bovine Serum Albumin). A stock solution of 1 mM test substance in DMSO was diluted to the desired concentration with phosphate buffer-1% BSA. 40 μl of microsomes were mixed with 20 μl of the solution of the test substance and the reaction was subsequently started with 20 μl of the [^14 C]R,S-MOS solution. The final conditions were: 0.4 mg/ml of microsomal proteins and […] of [^14 C]R,S-MOS in phosphate buffer, pH 7.4, containing 0.5% albumin, DMSO <0.1% and ethanol <2%, in a total volume of 80 μl.
After 1 hour at 37° C. the reaction was stopped by the addition of 0.6 ml of 10% KOH-methanol, 0.7 ml of water and 0.1 ml of hexane:ether (1:1, v/v) which contained 25 μg of non-radioactive MOS and 25 μg of lanosterol as the carrier. After shaking 1 ml of hexane:ether (1:1, v/v) was added to each test tube, these were again shaken and then centrifuged. The upper phase was transferred into a glass test tube, the lower phase was again extracted with hexane:ether and combined with the first extract. The entire extract was evaporated to dryness with nitrogen, the residue was suspended in 50 μl of hexane:ether and applied to a silica gel plate. Chromatographic separation was effected in hexane:ether (1:1, v/v) as the eluent. […] After drying radioactive MOS and lanosterol were observed on the silica gel plate. The ratio of MOS to lanosterol was determined from the radioactive bands in order to determine the OSC inhibition.
The test was carried out on the one hand with a constant test substance concentration of 100 nM and the percentage OSC inhibition against controls was calculated. In addition, the test was carried out with different test substance concentrations and subsequently the IC50 value was calculated, i.e. the concentration required to reduce the conversion of MOS into lanosterol to 50% of the control value.

[2] = Cholesterol lowering in fat-fed hamsters; type: in vivo, Male golden hamsters; settings: 200 μmol (about 70-120 mg/kg/day) in diet, 10 days
Description: Cholesterol lowering in fat-fed hamsters
Male golden hamsters kept individually were pre-treated for 7 days with a diet containing grated coconut (40 cal. % fat). The animals were then divided into groups each comprising 5 animals. During the treatment the animals were maintained on the same diet. Each test substance was firstly homogenized in 9 ml of water and subsequently mixed with the milled diet. The controls received only feed converted into a paste with water. The animals were treated for 10 days with a test substance dosage of 200 μmol (about 70-120 mg/kg/day). Blood samples (200 μl) were removed via the jugular vein under light anaesthesia on the last day of the pretreatment and one day after the last administration of test substance. The plasma cholesterol concentration was determined using a colorimetric enzyme method. The plasma lipoproteins were separated by exclusion chromatography (Hennes et al., Science Tools, 36, 1992, 10-12). The total cholesterol was determined in each fraction using a fluorometric enzyme method (Gamble et al., J. Lipid Res., 19, 1978, 1068-1071) in order to calculate the amount of cholesterol in the LDL and HDL fractions. The activity on plasma cholesterol and LDL and HDL cholesterol, expressed in percent of the control animals, for the products of Examples 8a and 12 is reproduced in the following Table: […]

[3] = 24 hrs., read-out: IC50 for C. albicans after 24 hrs. (growth inhibition)
[4] = 48 hrs., read-out: IC50 for C. albicans after 48 hrs. (growth inhibition)

Row | inhibition at 0.1 µM [1] [%] | IC50 [1] [nM] | SMILES | other results
1 | – | – | C=CCN(C)CCCCCCOc1ccc2c(c1)CCNC2c1ccc(Br)cc1 (racemic) [Example 21, (RS)-allyl-[6-[1-(4-bromo-phenyl)-1,2,3,4-tetrahydro-isoquinolin-6-yloxy]-hexyl]-methyl-amine] | IC50 (Aspergillus fumigatus): 4.1 µg/mL (≈ 8.96 µM); IC50 (Candida albicans; [3]): < 0.32 µg/mL; IC50 (Candida albicans; [4]): 1.3 µg/mL (≈ 2.84 µM); IC50 (Cryptococcus neoformans): < 0.32 µg/mL
2 | – | – | C=CCN(C)CCCCCCOc1ccc2c(c1)N=CNC2c1ccc(Br)cc1 (racemic) [Example 34, (RS)-Allyl-[6-[4-(4-bromo-phenyl)-3,4-dihydro-quinazolin-7-yloxy]-hexyl]-methyl-amine] | IC50 (Aspergillus fumigatus): 3.9 µg/mL (≈ 8.54 µM); IC50 (Candida albicans; [3]): 1.6 µg/mL (≈ 3.51 µM); IC50 (Candida albicans; [4]): 6.5 µg/mL (≈ 14.2 µM); IC50 (Cryptococcus neoformans): < 0.32 µg/mL
3 | 83 | 3.6 | CN(C[C@@H]1C[C@H]1COc1ccc2c(-c3ccc(Br)cc3)nccc2c1)C1CC1 (racemic) [Example 39, (1RS,2RS)-[2-[1-(4-Bromo-phenyl)-isoquinolin-6-yloxymethyl]-cyclopropylmethyl]-cyclopropyl-methyl-amine] | –
4 | 92 | 1.65 | C=CCN(C)C/C=C/COc1ccc2c(-c3ccc(Br)cc3)nsc2c1 [Example 2a, (E)-allyl-[4-[3-(4-bromo-phenyl)-benzo[d]isothiazol-6-yloxy]-but-2-enyl]-methyl-amine] | –
5 | 32 | – | CSCCN(C)CCCCCCOc1ccc2c(-c3ccc(Br)cc3)nsc2c1 [Example 2b] | –
6 | 99 | 4 | C=CCN(C)CCCCCCOc1ccc2c(-c3ccc(Br)cc3)csc2c1 [Example 3, allyl-[6-[3-(4-bromo-phenyl)-benzo[b]thiophen-6-yloxy]-hexyl]methyl-amine] | –
7 | 62 | – | C=CCN(C)C/C=C/COc1ccc2c(CCC=C(C)C)nsc2c1 [Example 6, (E)-allyl-methyl-[4-[3-(4-methyl-pent-3-enyl)-benzo[d]isothiazol-6-yloxy]-but-2-enyl]-amine] | –
8 | 61 | – | C=CCN(C)C/C=C/COc1ccc2c(-c3ccc(Br)cc3)noc2c1 [Example 12] | –
9 | 30 | – | C=CCN(C)CCCCCCOc1ccc(-c2noc3cc(Br)ccc23)cc1 [Example 14] | –
10 | 99 | – | C=CCN(C)CCCCCCOc1ccc2c(-c3ccc(Br)cc3)nccc2c1 [Example 23, allyl-[6-[1-(4-bromo-phenyl)-isoquinolin-6-yloxy]-hexyl]-methyl-amine] | HDL cholesterol (plasma, percent of control animals) [2]: -2%; LDL cholesterol (plasma, percent of control animals) [2]: -23%; Total cholesterol (plasma, percent of control animals) [2]: -15%
11 | 95 | 2.1 | C=CCN(C)C/C=C/COc1ccc2c(c1)CCN=C2c1ccc(Br)cc1 [Example 26, (E)-allyl-[4-[1-(4-bromo-phenyl)-3,4-dihydro-isoquinolin-6-yloxy]-but-2-enyl]-methyl-amine] | –
12 | 96 | 3.7 | C=CCN(C)C/C=C/COc1ccc2c(c1)CON=C2c1ccc(Br)cc1 [Example 27, (E)-allyl-[4-[4-(4-bromo-phenyl)-1H-benzo[d][1,2]oxazin-7-yloxy]-but-2-enyl]-methyl-amine] | –
13 | 85 | – | C=CCN(C)CCCCCCOc1ccc2c(-c3ccc(Br)cc3)nncc2c1 [Example 29, allyl-[6-[1-(4-bromo-phenyl)-phthalazin-6-yloxy]-hexyl]-methyl-amine] | –
14 | – | – | C=CCN(C)CCCCCCOc1ccc2c(-c3ccc(Br)cc3)nncc2c1 [Example 29a, allyl-[6-[1-(4-bromo-phenyl)-phthalazin-6-yloxy]-hexyl]-methyl-amine] | IC50 (Aspergillus fumigatus): 0.37 µg/mL (≈ 0.814 µM); IC50 (Candida albicans; [3]): < 0.32 µg/mL; IC50 (Candida albicans; [4]): 1.1 µg/mL (≈ 2.42 µM); IC50 (Cryptococcus neoformans): < 0.32 µg/mL
15 | 79 | 29 | C=CCN(C)C/C=C/COc1cc2c(cc1F)c(-c1ccc(Br)cc1)nn2C [Example 31, (E)-allyl-[4-[3-(4-bromo-phenyl)-5-fluoro-1-methyl-1H-indazol-6-yloxy]-but-2-enyl]-methyl-amine] | –
16 | 75 | – | C=CCN(C)CCCCCCOc1ccc2c(CCC=C(C)C)nn(C)c2c1 [Example 32e, allyl-methyl-[6-[1-methyl-3-(4-methyl-pent-3-enyl)-1H-indazol-6-yloxy]-hexyl]amine] | –
17 | 54 | – | C=CCN(C)C/C=C/COc1ccc2c(CCC=C(C)C)nn(C)c2c1 [Example 32h, (E)-allyl-methyl-[4-[1-methyl-3-(4-methyl-pent-3-enyl)-1H-indazol-6-yloxy]-but-2-enyl]-amine] | –
18 | 55 | – | CN(CCCCCCOc1ccc2c(-c3ccc(Br)cc3)nn(C)c2c1)C1CC1 [Example 32i, [6-[3-(4-bromo-phenyl)-1-methyl-1H-indazol-6-yloxy]-hexyl]-cyclopropyl-methyl-amine] | –
19 | 62 | – | C=CCN(C)CCCCCCOc1ccc2c(-c3ccc(Br)cc3)n[nH]c2c1 [Example 32k, allyl-[6-[3-(4-bromo-phenyl)-1H-indazol-6-yloxy]-hexyl]-methyl-amine] | –
20 | 94 | 12.3 | C=CCN(C)CCCCCCOc1ccc2c(-c3ccc(Br)cc3)ncnc2c1 [Example 33, Allyl-[6-[4-(4-bromo-phenyl)-quinazolin-7-yloxy]-hexyl]-methyl-amine] | –
21 | 77 | 24 | C=CCN(C)CCCCCCOc1ccc2c(c1)OCC=C2c1ccc(Br)cc1 [Example 37, Allyl-[6-[4-(4-bromo-phenyl)-2H-chromen-7-yloxy]-hexyl]-methyl-amine] | –
22 | 84 | – | C=CCN(C)CCCCCCOc1ccc2c(-c3ccc(Br)cc3)ccnc2c1 [Example 38, Allyl-[6-[4-(4-bromo-phenyl)-quinolin-7-yloxy]-hexyl]-methyl-amine] | –
